Test results taken from PubChem BioAssay (NCI).
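How tested: cells in 96-well plates exposed to compound for 48 hours at five concentrations. GI50: concentration for 50% inhibition of growth. At the TGI there is no net growth.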

Columns and labels:
Assay in all cases: growth of human tumour cells (NCI), 48 h
NCI-H23 lung = test system: NCI-H23 lung
M14 melanoma = test system: M14 melanoma
CAKI-1 renal = test system: CAKI-1 renal
EKVX NSCLC = test system: EKVX NSCLC
SK-MEL-28 melanoma = test system: SK-MEL-28 melanoma
NCI-H226 lung = test system: NCI-H226 lung
HL-60(TB) leukemia = test system: HL-60(TB) leukemia
MCF7 breast = test system: MCF7 breast
NCI-H460 lung = test system: NCI-H460 lung
SN12C renal = test system: SN12C renal
COLO 205 colon = test system: COLO 205 colon
RXF 393 renal = test system: RXF 393 renal
U251 CNS = test system: U251 CNS
IGROV1 ovarian = test system: IGROV1 ovarian
TK-10 renal = test system: TK-10 renal
HOP-92 NSCLC = test system: HOP-92 NSCLC
BT-549 breast = test system: BT-549 breast
SF-268 CNS = test system: SF-268 CNS
CCRF-CEM leukemia = test system: CCRF-CEM leukemia
ACHN renal = test system: ACHN renal
HCT-15 colon = test system: HCT-15 colon
OVCAR-3 ovarian = test system: OVCAR-3 ovarian
HOP-62 NSCLC = test system: HOP-62 NSCLC
MALME-3M melanoma = test system: MALME-3M melanoma
SK-OV-3 ovarian = test system: SK-OV-3 ovarian
UACC-62 melanoma = test system: UACC-62 melanoma
HT29 colon = test system: HT29 colon
LOX IMVI melanoma = test system: LOX IMVI melanoma

## S=C(Nc1ccc(-c2nc3ccccc3[nH]2)cc1)Nc1ccc(-c2nc3ccccc3[nH]2)cc1
NCI-H23 lung
  GI50: 70.3 µM
  TGI: > 100 µM
M14 melanoma
  GI50: 60.3 µM
  TGI: > 100 µM
CAKI-1 renal
  GI50: 69.7 µM
  TGI: > 100 µM
EKVX NSCLC
  GI50: > 100 µM
  TGI: > 100 µM
SK-MEL-28 melanoma
  GI50: > 100 µM
  TGI: > 100 µM
NCI-H226 lung
  GI50: 39.2 µM
  TGI: > 100 µM
HL-60(TB) leukemia
  GI50: > 100 µM
  TGI: > 100 µM
MCF7 breast
  GI50: 28.8 µM
  TGI: > 100 µM
NCI-H460 lung
  GI50: 65 µM
  TGI: > 100 µM
SN12C renal
  GI50: 47.7 µM
  TGI: > 100 µM
COLO 205 colon
  GI50: > 100 µM
  TGI: > 100 µM
RXF 393 renal
  GI50: > 100 µM
  TGI: > 100 µM
U251 CNS
  GI50: > 100 µM
  TGI: > 100 µM
IGROV1 ovarian
  GI50: 64.1 µM
  TGI: > 100 µM
TK-10 renal
  GI50: 32.4 µM
  TGI: > 100 µM
HOP-92 NSCLC
  GI50: > 100 µM
  TGI: > 100 µM
BT-549 breast
  GI50: > 100 µM
  TGI: > 100 µM
SF-268 CNS
  GI50: > 100 µM
  TGI: > 100 µM
CCRF-CEM leukemia
  GI50: 92 µM
  TGI: > 100 µM
ACHN renal
  GI50: > 100 µM
  TGI: > 100 µM
HCT-15 colon
  GI50: 61.1 µM
  TGI: > 100 µM
OVCAR-3 ovarian
  GI50: 48.9 µM
  TGI: > 100 µM
HOP-62 NSCLC
  GI50: > 100 µM
  TGI: > 100 µM
MALME-3M melanoma
  GI50: 52.5 µM
  TGI: > 100 µM
SK-OV-3 ovarian
  GI50: > 100 µM
  TGI: > 100 µM
UACC-62 melanoma
  GI50: 38.6 µM
  TGI: > 100 µM
HT29 colon
  GI50: > 100 µM
  TGI: > 100 µM
LOX IMVI melanoma
  GI50: > 100 µM
  TGI: > 100 µM
